# Reference: US20200032313A1 (SANYO CHEMICAL INDUSTRIES, LTD., priority 2017, published 2020)
# Where two headings read alike, the source gives them in different places.
# How the values were obtained:
# [1] = test system: luciferase-expressing Saccharomyces cerevisiae; type: cell-based; details: S. cerevisiae, 8 hours culturing after addition
# Description: (§1) Transformation was performed using Saccharomyces cerevisiae distributed by Biotechnology Center, National Institute of Technology and Evaluation, whereby luciferase-expressing microorganisms were produced. A vector pYES2 (Thermo Fisher Scientific) was digested with HindIII and XbaI, and a synthetic (synthesized by Thermo Fisher Scientific on commission) a factor-luciferase gene having a HindIII cut site at one end and an XbaI cut site at the other end was inserted into the vector. The microorganisms were transformed by the a factor-luciferase gene-inserted pYES2 according to the method described in an instruction manual of pYES2. The luciferase-expressing microorganisms were inoculated using a platinum loop into YPD broth (yeast extract 1 wt % (Difco), bacto peptone 2 wt % (Difco), and glucose 2 wt %) and were shake-cultured at 200 rpm at 30° C. for 15 hours. Then, the thus-obtained broth was resuspended in 125-ml YPD broth (containing 100 mM potassium hydrogen phosphate buffer; pH: 6) to a final optical density (hereinafter sometimes abbreviated as “OD”) of 0.1 OD/ml.
# The optical density of the broth was measured under the same conditions as for “Method of measuring the optical density of broth” described later.
# (§2) Further, the resuspended broth was continued to be shake-cultured at 1100 rpm at 30° C. for about 17 hours until OD was 20 to 30. When OD was 20 to 30, the broth was centrifuged (1500 g, 10 min), and resuspended in 125-ml galactose-inducing broth (the YPD broth containing 100 mM potassium phosphate buffer and also containing 2% galactose instead of glucose; pH: 6), followed by culturing at 1100 rpm at 30° C. for 2 hours.
# (§3) Subsequently, the surfactant described in Table 1 was added to the broth in the amount (wt %) described in Table 1, and the broth was cultured at 1100 rpm at 30° C. for 8 hours. Subsequently, the broth was sampled for measuring the optical density (optical density at the end of culturing) and for measuring the secretion efficiency. Then, these samples were subjected to centrifugation using a centrifuge to separate bacteria and the supernatant from the broth. Then, the supernatant and the bacteria were collected.
# The optical density of the broth containing the microorganisms collected by sampling was measured in a quartz cell (light path of 1 cm) using a spectrophotometer (UV-1700, Shimadzu Corporation).
# The broth was centrifuged at 1500 rpm at 4° C. for 5 minutes, and the supernatant was discarded. The precipitate was resuspended in a saline solution in an amount equal to the amount of the sample solution, and was diluted in the saline solution to obtain an appropriate absorbance (0.1 to 0.8). Then, the absorbance at 600 nm was measured. The optical density of the broth was calculated using the following mathematical formula (1).
# Broth optical density(OD)=(Absorbance of diluted broth at 600 nm)×dilution factor of broth (Mathematical formula 1)
# [2] = test system: luciferase-expressing Saccharomyces cerevisiae; type: cell-based; details: S. cerevisiae, 8 hours
# Description: as §1, §2, §3
# (§4) The broth obtained in each of Examples 1 to 22 and Comparative Examples 1 and 2 was 10 to 1000-fold diluted in a 0.2 M Tris-HCl buffer (pH 7.4), and 20 μl of the dilution was mixed with 60 μl of a luciferin solution described below to obtain a sample. The emission intensity of the sample was measured using a luminometer under the following conditions, and the measured emission intensity was substituted into the following formula. The resulting value was regarded as the luciferase activity of the secreted and produced useful substance.
# (§5) Luminometer: “Glomax Navigator” available from Promega Corporation Luciferin solution: product of New England Biolabs Japan Inc. Measurement temperature: 25° C. Detector: emission detector Detection wavelength: 350 to 700 nm
# (§6) (Luciferase activity of secreted and produced useful substance)=(Emission intensity)×dilution factor/(optical density at the end of culturing)
# (§7) The bacteria obtained in each of Examples 1 to 22 and Comparative Examples 1 and 2 were mixed with a 0.2 M Tris-HCl buffer (pH 7.4) in an amount of 200 μl that is equal to the amount of the removed supernatant, followed by centrifugation, whereby the bacteria were washed. The washed bacteria were resuspended in a 0.2 M Tris-HCl buffer (pH 7.4) in an amount of 200 μl that is equal to the amount of the washed supernatant, and 10 to 1000-fold diluted in a 0.2 M Tris-HCl buffer (pH 7.4). The resulting dilution was used as a sample for measuring the luciferase activity on the bacterial surface.
# Then, 20 μl of the sample for measuring the luciferase activity on the bacterial surface was mixed with 60 μl of the luciferin solution to obtain a sample. The emission intensity of the sample was measured under the same conditions as for “Measurement of luciferase activity of secreted and produced useful substance”, and the measured emission intensity was substituted into the following formula. […]
# [3] = test system: luciferase-expressing Pichia pastoris; type: cell-based; details: 8 hours
# Description: Transformation was performed using Pichia pastoris distributed by Biotechnology Center, National Institute of Technology and Evaluation, whereby luciferase-expressing microorganisms were produced. A vector pPICZ a (Thermo Fisher Scientific) was digested with XhoI and XbaI, and a synthetic (synthesized by Thermo Fisher Scientific on commission) luciferase gene having an XhoI cut site at one end and an XbaI cut site at the other end was inserted into the vector. The microorganisms were transformed by the luciferase gene-inserted pPICZ a according to the method described in an instruction manual of pPICZ a. The luciferase-expressing microorganisms were inoculated using a platinum loop into BMGY broth, and were shake-cultured at 200 rpm at 30° C. for 15 hours. Then, the thus-obtained broth was resuspended in 125-ml BMGY broth (yeast extract 1 wt % (Difco), bacto peptone 2 wt % (Difco), yeast nitrogen base w/o amino acid 1.34 wt % (Difco), glucose 2 wt %, and 100 mM potassium hydrogen phosphate; pH: 6.0) to a final OD of 0.1 OD/ml. Further, the resuspended broth was continued to be shake-cultured at 1100 rpm at 30° C. for about 17 hours until OD was 20 to 30. When OD was 20 to 30, the broth was centrifuged (1500 g, 10 min), and resuspended in 125-ml BMMY broth, followed by culturing at 1100 rpm at 30° C. for 2 hours.
# as §3, with “Two hours later, the surfactant” for “Subsequently, the surfactant”, “in Table 2 was added” for “in Table 1 was added”, “in Table 2, and the” for “in Table 1, and the”
# as §4, §5, §6, §7
# Then, 20 μl of the sample for measuring the luciferase activity on the bacterial surface was mixed with 60 μl of the luciferin solution to obtain a sample. The emission intensity of the sample was measured under the same conditions as for “Measurement of luciferase activity of secreted and produced useful substance”, and the measured emission intensity was substituted into the following formula. The resulting value was regarded as the luciferase activity of the useful substance remaining on the bacterial surface. […]
# [4] = pKa of the ionizable group of the surfactant in water; details: two values where two ionizable groups
# Description: The pKa of the ionizable group in water is a value determined at 25° C.
# [5] = surfactant 0.003 wt % of broth, Example 1
# [6] = surfactant 0.03 wt % of broth, Examples 2, 5-11
# [7] = surfactant 0.3 wt % of broth, Example 3
# [8] = surfactant 3 wt % of broth, Example 4
# [9] = surfactant 0.03 wt % of broth, Examples 13, 16-22
Molecule,"Optical density (OD) of broth at the end of culturing [1, 6]","Secretion efficiency (%) [2, 6]","Secretion efficiency (%) [3, 9]",also measured
CCCCCCCCCCCCNCCC(=O)O,21.2 OD,61%,80%,"Optical density (OD) of broth at the end of culturing [1, 5]: 23.5 OD; Optical density (OD) of broth at the end of culturing [1, 7]: 18.2 OD; Optical density (OD) of broth at the end of culturing [1, 8]: 10.9 OD; Secretion efficiency (%) [2, 5]: 56%; Secretion efficiency (%) [2, 7]: 65%; Secretion efficiency (%) [2, 8]: 75%; Secretion efficiency (%) ([3]; surfactant 0.003 wt % of broth, Example 12): 64%; Secretion efficiency (%) ([3]; surfactant 0.3 wt % of broth, Example 14): 84%; Secretion efficiency (%) ([3]; surfactant 3 wt % of broth, Example 15): 67%"
"CCCCCCCCCCCC[N+](C)(C)C.[Cl-] [Surfactant (A2-1), lauryl trimethyl ammonium chloride]",13.8 OD,52%,88%,
"CCCCCCCCCCCC[N+](C)(C)CCCS(=O)(=O)O.[OH-] [Surfactant (A3-3), dodecyldimethyl(3-sulfopropyl)ammonium hydroxide]",21.8 OD,61%,75%,
"CCCCCCCCCCCCCCCCOP(=O)([O-])OCC[N+](C)(C)C [Surfactant (A3-4), miltefosine, reference compound]",21.1 OD,59%,66%,
"CCCCCCCCCCCC[N+](C)(C)CC(=O)[O-] [Surfactant (A3-5), betaine lauryldimethylaminoacetate]",20.4 OD,56%,90%,
sodium (2-dodecylamino)ethanesulfonate [Surfactant (A3-1)],22.0 OD,60%,62%,
sodium polyoxyethylene (average 2.5 mol adduct) lauryl ether sulfate [Surfactant (A1-1)],21.9 OD,66%,66%,pKa of the ionizable group in water at 25° C. [4]: 2.0
sodium polyoxyethylene (average 3 mol adduct) lauryl ether acetate [Surfactant (A1-2)],22.1 OD,58%,64%,pKa of the ionizable group in water at 25° C. [4]: 3.6
